Laboratory results taken from patent US20140357487A1, “PLANTS HAVING INCREASED TOLERANCE TO HERBICIDES” (BASF SE, priority 2011, published 2014).

Legend:
[1] = test system: transgenic soybean plants, Arabidopsis HPPD, event SDS-9857; test: Greenhouse testing of transgenic soybean plants, Arabidopsis HPPD; type: in vivo, Glycine max; details: soybean SDS-9857, 5 days after herbicide treatment, average of 8 T1
Text: Various methods for the production of stably transformed plants are well known in the art. Coumarone-derivative herbicide tolerant soybean (Glycine max) or corn (Zea mays) plants can be produced by a method described by Olhoft et al. (US patent 2009/0049567). Briefly, HPPD or HST encoding polynucleotides are cloned into a binary vector using standard cloning techniques as described by Sambrook et al. (Molecular cloning (2001) Cold Spring Harbor Laboratory Press). The final vector construct contains an HPPD or HST encoding sequence flanked by a promoter sequence (e.g. the ubiquitin promoter (PcUbi) sequence) and a terminator sequence (e.g. the nopaline synthase terminator (NOS) sequence) and a resistance marker gene cassette (e.g. AHAS) (FIG. 2). Optionally, the HPPD or HST gene can provide the means of selection. Agrobacterium-mediated transformation is used to introduce the DNA into soybean's axillary meristem cells at the primary node of seedling explants. After inoculation and co-cultivation with Agrobacteria, the explants are transferred to shoot induction medium without selection for one week. The explants are subsequently transferred to shoot induction medium with 1-3 μM imazapyr (Arsenal) for 3 weeks to select for transformed cells. Explants with healthy callus/shoot pads at the primary node are then transferred to shoot elongation medium containing 1-3 μM imazapyr until a shoot elongates or the explant dies. After regeneration, transformants are transplanted to soil in small pots, placed in growth chambers (16 hr day/8 hr night; 25° C. day/23° C. night; 65% relative humidity; 130-150 mE m−2 s−1) and subsequently tested for the presence of the T-DNA via Taqman analysis. After a few weeks, healthy, transgenic positive, single copy events are transplanted to larger pots and allowed to grow in the growth chamber. Transformation of corn plants is done by a method described by McElver and Singh (WO 2008/124495). Plant transformation vector constructs containing HPPD or HST sequences are introduced into maize immature embryos via Agrobacterium-mediated transformation. Transformed cells are selected in selection media supplemented with 0.5-1.5 μM imazethapyr for 3-4 weeks. Transgenic plantlets are regenerated on plant regeneration media and rooted afterwards. Transgenic plantlets are subjected to TaqMan analysis for the presence of the transgene before being transplanted to potting mixture and grown to maturity in greenhouse. Arabidopsis thaliana is transformed with HPPD or HST sequences by floral dip method as described by McElver and Singh (WO 2008/124495). Transgenic Arabidopsis plants are subjected to Tag Man analysis for analysis of the number of integration loci. Transformation of Oryza sativa (rice) are done by protoplast transformation as described by Peng et al. (U.S. Pat. No. 6,653,529)
Transgenic plants expressing heterologous HPPD or HST enzymes are tested for tolerance against coumarone-derivative herbicides in greenhouse experiments.
For post emergence treatment, the test plants are first grown to a height of 3 to 15 cm, depending on the plant habit, and only then treated with the herbicides. For this purpose, the test plants are either sown directly and grown in the same containers, or they are first grown separately and transplanted into the test containers a few days prior to treatment.
Depending on the species, the plants are kept at 10-25° C. or 20-35° C. […] During this time, the plants are tended and their response to the individual treatments is evaluated. […] Tolerance to coumarone-derivative herbicides can also be assessed in Arabidopsis. In this case transgenic Arabidopsis thaliana plants are assayed for improved tolerance to coumarone-derivative herbicides in 48-well plates. Seeds are surface sterilized by stirring for 5 min in ethanol+water (70+30 by volume), rinsing one time with ethanol+water (70+30 by volume) and two times with a sterile, deionized water. […]

Blepharisma HPPD = test: HPPD activity assay, Blepharisma HPPD; type: biochemical; details: normalized on Arabidopsis wild-type HPPD
Experimental: (§1) HPPD produces homogentisic acid and CO2 from 4-hydroxyphenylpyruvate (4-HPP) and O2. The activity assay for HPPD is based on the analysis of homogentisic acid by reversed phase HPLC.
(§2) The assay mixture can contain 150 mM potassium phosphate buffer pH 7.0, 50 mM L-ascorbic acid, 1 μM FeSO4 and 7 μg of purified enzyme in a total volume of 1 ml.
(§3) Inhibitors are dissolved in DMSO (dimethylsulfoxide) to a concentration of 20 mM or 0.5 mM, respectively. From this stock solution serial five-fold dilutions are prepared in DMSO, which are used in the assay. The respective inhibitor solution accounts for 1% of the assay volume. […]
(§4) Activities are normalized by setting the uninhibited enzyme activity to 100%. IC50 values are calculated using non-linear regression. […]
(§5) Inhibitors are dissolved in DMSO (dimethylsulfoxide) to a concentration of 0.5 mM. […] IC50 values are calculated using non-linear regression.
(§6) Using methods which are described in the above examples or well known in the art, purified, recombinant wildtype HPPD enzymes are characterized with respect to their kinetic properties and sensitivity towards HPPD inhibiting herbicides. Apparent michaelis constants (Km) and maximal reaction velocities (Vmax) are calculated by non-linear regression with the software GraphPad Prism 5 (GraphPad Software, La Jolla, USA) using a substrate inhibition model. […]

Rhodococcus HPPD1 = test: HPPD activity assay, Rhodococcus HPPD1; type: biochemical; details: normalized on Arabidopsis wild-type HPPD
Experimental: as §1, §2, §3, §4, §5, §6

CC1(C)c2cccnc2C(O)=C(c2ccc(Cl)nc2Cl)S1(=O)=O [Inhibitor 2, 7-(2,6-dichloro-3-pyridyl)-5,5-dimethyl-6,6-dioxo-thiopyrano[4,3-b]pyridin-8-ol]
Injury evaluation, scale of 1-100, bleaching phenotype ([1]; 2.5 g/ha): 1 | Injury evaluation, scale of 1-100, bleaching phenotype ([1]; 10 g/ha): 1 | Injury evaluation, scale of 1-100, bleaching phenotype ([1]; 40 g/ha): 2

Cc1c(C(=O)c2cnn(C)c2O)ccc(S(C)(=O)=O)c1C1=NOCC1 [Topramezone, reference compound]
Injury evaluation, scale of 1-100, bleaching phenotype ([1]; 6.25 g/ha): 1 | Injury evaluation, scale of 1-100, bleaching phenotype ([1]; 25 g/ha): 10 | Injury evaluation, scale of 1-100, bleaching phenotype ([1]; 100 g/ha): 19

COCCOCc1c(Cl)ccc(C2=C(O)c3ncccc3C(C)(C)S2(=O)=O)c1Cl [Inhibitor 3, 7-[2,4-dichloro-3-(2-methoxyethoxymethyl)phenyl]-5,5-dimethyl-6,6-dioxo-thiopyrano[4,3-b]pyridin-8-ol]
Normalized tolerance index TI (Blepharisma HPPD): 0.5 | Normalized tolerance index TI (Rhodococcus HPPD1): 1.6

CC1=NOC(c2c(Cl)ccc(C3=C(O)c4ncccc4C(C)(C)S3(=O)=O)c2Cl)C1 (stereo not shown) [Inhibitor 1, 7-[2,4-dichloro-3-(3-methyl-4,5-dihydroisoxazol-5-yl)phenyl]-5,5-dimethyl-6,6-dioxo-thiopyrano[4,3-b]pyridin-8-ol]
Normalized tolerance index TI (Blepharisma HPPD): 12.4 | Normalized tolerance index TI (Rhodococcus HPPD1): 39
